Data taken from PubChem BioAssay (NCI).
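Assay format: 96-well plates, 48-hour exposure. GI50: concentration for 50% inhibition of growth. TGI: concentration producing complete growth inhibition.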

Experiments:
Experiment in all cases: inhibition of tumour cell growth, NCI panel, 48 h
786-0 renal = test system: 786-0 renal
A549 NSCLC = test system: A549 NSCLC
ACHN renal = test system: ACHN renal
BT-549 breast = test system: BT-549 breast
CAKI-1 renal = test system: CAKI-1 renal
COLO 205 colon = test system: COLO 205 colon
DU-145 prostate = test system: DU-145 prostate
EKVX NSCLC = test system: EKVX NSCLC
HCT-116 colon = test system: HCT-116 colon
HCT-15 colon = test system: HCT-15 colon
HL-60(TB) leukemia = test system: HL-60(TB) leukemia
HOP-62 NSCLC = test system: HOP-62 NSCLC
HOP-92 NSCLC = test system: HOP-92 NSCLC
HS 578T breast = test system: HS 578T breast
HT29 colon = test system: HT29 colon
IGROV1 ovarian = test system: IGROV1 ovarian
KM12 colon = test system: KM12 colon
LOX IMVI melanoma = test system: LOX IMVI melanoma
M14 melanoma = test system: M14 melanoma
MALME-3M melanoma = test system: MALME-3M melanoma
MCF7 breast = test system: MCF7 breast
MDA-MB-231 breast = test system: MDA-MB-231 breast
MDA-MB-435 = test system: MDA-MB-435
MOLT-4 leukemia = test system: MOLT-4 leukemia
NCI-H226 lung = test system: NCI-H226 lung
NCI-H522 lung = test system: NCI-H522 lung
OVCAR-3 ovarian = test system: OVCAR-3 ovarian
OVCAR-4 ovarian = test system: OVCAR-4 ovarian
OVCAR-5 ovarian = test system: OVCAR-5 ovarian
OVCAR-8 ovarian = test system: OVCAR-8 ovarian
PC-3 prostate = test system: PC-3 prostate
RPMI-8226 leukemia = test system: RPMI-8226 leukemia
RXF 393 renal = test system: RXF 393 renal
SF-268 CNS = test system: SF-268 CNS
SF-295 CNS = test system: SF-295 CNS
SF-539 CNS = test system: SF-539 CNS
SK-MEL-2 melanoma = test system: SK-MEL-2 melanoma
SK-MEL-28 melanoma = test system: SK-MEL-28 melanoma
SK-MEL-5 melanoma = test system: SK-MEL-5 melanoma
SK-OV-3 ovarian = test system: SK-OV-3 ovarian
SN12C renal = test system: SN12C renal
SNB-19 CNS = test system: SNB-19 CNS
SNB-75 CNS = test system: SNB-75 CNS
SR leukemia = test system: SR leukemia
TK-10 renal = test system: TK-10 renal
U251 CNS = test system: U251 CNS
UACC-257 melanoma = test system: UACC-257 melanoma
UO-31 renal = test system: UO-31 renal
A498 renal = test system: A498 renal
CCRF-CEM leukemia = test system: CCRF-CEM leukemia
HCC-2998 colon = test system: HCC-2998 colon
K-562 leukemia = test system: K-562 leukemia
NCI-H23 lung = test system: NCI-H23 lung
NCI-H460 lung = test system: NCI-H460 lung
NCI/ADR-RES ovarian = test system: NCI/ADR-RES ovarian
SW-620 colon = test system: SW-620 colon
T-47D breast = test system: T-47D breast
UACC-62 melanoma = test system: UACC-62 melanoma

OC1CCN(CCCOc2c3ccc(Cl)cc3nc3c2oc2ccccc23)CC1
GI50 (786-0 renal): 1300 nM
TGI (786-0 renal): 4860 nM
GI50 (A549 NSCLC): 1230 nM
TGI (A549 NSCLC): 23200 nM
GI50 (ACHN renal): 491 nM
TGI (ACHN renal): 11700 nM
GI50 (BT-549 breast): 2490 nM
TGI (BT-549 breast): 7240 nM
GI50 (CAKI-1 renal): 525 nM
TGI (CAKI-1 renal): 3350 nM
GI50 (COLO 205 colon): 661 nM
TGI (COLO 205 colon): 2150 nM
GI50 (DU-145 prostate): 1570 nM
TGI (DU-145 prostate): > 100000 nM
GI50 (EKVX NSCLC): 2390 nM
TGI (EKVX NSCLC): 8460 nM
GI50 (HCT-116 colon): 390 nM
TGI (HCT-116 colon): 2110 nM
GI50 (HCT-15 colon): 780 nM
TGI (HCT-15 colon): > 100000 nM
GI50 (HL-60(TB) leukemia): 1580 nM
TGI (HL-60(TB) leukemia): 4800 nM
GI50 (HOP-62 NSCLC): 1860 nM
TGI (HOP-62 NSCLC): 11400 nM
GI50 (HOP-92 NSCLC): 1040 nM
TGI (HOP-92 NSCLC): 3790 nM
GI50 (HS 578T breast): 2170 nM
TGI (HS 578T breast): 8010 nM
GI50 (HT29 colon): 610 nM
TGI (HT29 colon): 2270 nM
GI50 (IGROV1 ovarian): 1970 nM
TGI (IGROV1 ovarian): 12500 nM
GI50 (KM12 colon): 1480 nM
TGI (KM12 colon): > 100000 nM
GI50 (LOX IMVI melanoma): 343 nM
TGI (LOX IMVI melanoma): 1450 nM
GI50 (M14 melanoma): 1340 nM
TGI (M14 melanoma): 3090 nM
GI50 (MALME-3M melanoma): 1490 nM
TGI (MALME-3M melanoma): 3100 nM
GI50 (MCF7 breast): 968 nM
TGI (MCF7 breast): 4300 nM
GI50 (MDA-MB-231 breast): 1570 nM
TGI (MDA-MB-231 breast): 6130 nM
GI50 (MDA-MB-435): 1230 nM
TGI (MDA-MB-435): 2570 nM
GI50 (MOLT-4 leukemia): 391 nM
TGI (MOLT-4 leukemia): 3200 nM
GI50 (NCI-H226 lung): 1990 nM
TGI (NCI-H226 lung): 5630 nM
GI50 (NCI-H522 lung): 1280 nM
TGI (NCI-H522 lung): 3200 nM
GI50 (OVCAR-3 ovarian): 2200 nM
TGI (OVCAR-3 ovarian): > 100000 nM
GI50 (OVCAR-4 ovarian): 1390 nM
TGI (OVCAR-4 ovarian): 5090 nM
GI50 (OVCAR-5 ovarian): 1970 nM
TGI (OVCAR-5 ovarian): 6850 nM
GI50 (OVCAR-8 ovarian): 1130 nM
TGI (OVCAR-8 ovarian): 13500 nM
GI50 (PC-3 prostate): 1490 nM
TGI (PC-3 prostate): 4070 nM
GI50 (RPMI-8226 leukemia): 1590 nM
TGI (RPMI-8226 leukemia): 4800 nM
GI50 (RXF 393 renal): 1280 nM
TGI (RXF 393 renal): 3360 nM
GI50 (SF-268 CNS): 1490 nM
TGI (SF-268 CNS): > 100000 nM
GI50 (SF-295 CNS): 2080 nM
TGI (SF-295 CNS): 11800 nM
GI50 (SF-539 CNS): 1320 nM
TGI (SF-539 CNS): 2640 nM
GI50 (SK-MEL-2 melanoma): 1760 nM
TGI (SK-MEL-2 melanoma): 3340 nM
GI50 (SK-MEL-28 melanoma): 1690 nM
TGI (SK-MEL-28 melanoma): 3170 nM
GI50 (SK-MEL-5 melanoma): 1790 nM
TGI (SK-MEL-5 melanoma): 3250 nM
GI50 (SK-OV-3 ovarian): 2420 nM
TGI (SK-OV-3 ovarian): 10500 nM
GI50 (SN12C renal): 839 nM
TGI (SN12C renal): > 100000 nM
GI50 (SNB-19 CNS): 2280 nM
TGI (SNB-19 CNS): 32600 nM
GI50 (SNB-75 CNS): 1330 nM
TGI (SNB-75 CNS): 2700 nM
GI50 (SR leukemia): 458 nM
TGI (SR leukemia): 3230 nM
GI50 (TK-10 renal): 2780 nM
TGI (TK-10 renal): 7650 nM
GI50 (U251 CNS): 1090 nM
TGI (U251 CNS): 7400 nM
GI50 (UACC-257 melanoma): 1720 nM
TGI (UACC-257 melanoma): 3490 nM
GI50 (UO-31 renal): 517 nM
TGI (UO-31 renal): 3100 nM

CCCn1cnc2c(c1=N)C(c1ccc(Cl)cc1)c1sc3c(C)cccc3c1O2 (centres undefined)
GI50 (786-0 renal): 558 nM
TGI (786-0 renal): 11200 nM
GI50 (A498 renal): 304 nM
TGI (A498 renal): 1170 nM
GI50 (A549 NSCLC): 530 nM
TGI (A549 NSCLC): 8740 nM
GI50 (ACHN renal): 791 nM
TGI (ACHN renal): 14900 nM
GI50 (BT-549 breast): 1490 nM
TGI (BT-549 breast): 6890 nM
GI50 (CAKI-1 renal): 192 nM
TGI (CAKI-1 renal): 14900 nM
GI50 (CCRF-CEM leukemia): 380 nM
GI50 (COLO 205 colon): 386 nM
TGI (COLO 205 colon): 1900 nM
GI50 (DU-145 prostate): 444 nM
TGI (DU-145 prostate): 5440 nM
GI50 (EKVX NSCLC): 572 nM
TGI (EKVX NSCLC): 19400 nM
GI50 (HCC-2998 colon): 732 nM
TGI (HCC-2998 colon): 6100 nM
GI50 (HCT-116 colon): 410 nM
TGI (HCT-116 colon): 2150 nM
GI50 (HCT-15 colon): 409 nM
TGI (HCT-15 colon): 4930 nM
GI50 (HL-60(TB) leukemia): 346 nM
TGI (HL-60(TB) leukemia): 1690 nM
GI50 (HOP-62 NSCLC): 477 nM
TGI (HOP-62 NSCLC): 10700 nM
GI50 (HOP-92 NSCLC): 1980 nM
TGI (HOP-92 NSCLC): 14500 nM
GI50 (HS 578T breast): 352 nM
TGI (HS 578T breast): 5470 nM
GI50 (HT29 colon): 402 nM
TGI (HT29 colon): 5110 nM
GI50 (IGROV1 ovarian): 464 nM
TGI (IGROV1 ovarian): 11800 nM
GI50 (K-562 leukemia): 283 nM
TGI (K-562 leukemia): 4200 nM
GI50 (KM12 colon): 443 nM
TGI (KM12 colon): 11200 nM
GI50 (LOX IMVI melanoma): 701 nM
TGI (LOX IMVI melanoma): 6730 nM
GI50 (M14 melanoma): 314 nM
TGI (M14 melanoma): 3860 nM
GI50 (MALME-3M melanoma): 10200 nM
TGI (MALME-3M melanoma): 25100 nM
GI50 (MCF7 breast): 339 nM
TGI (MCF7 breast): 10800 nM
GI50 (MDA-MB-231 breast): 774 nM
TGI (MDA-MB-231 breast): 13200 nM
GI50 (MOLT-4 leukemia): 498 nM
TGI (MOLT-4 leukemia): 7700 nM
GI50 (NCI-H226 lung): 431 nM
TGI (NCI-H226 lung): 4080 nM
GI50 (NCI-H23 lung): 587 nM
TGI (NCI-H23 lung): 13100 nM
GI50 (NCI-H460 lung): 362 nM
TGI (NCI-H460 lung): 1900 nM
GI50 (NCI-H522 lung): 387 nM
TGI (NCI-H522 lung): 5700 nM
GI50 (NCI/ADR-RES ovarian): 316 nM
TGI (NCI/ADR-RES ovarian): 2440 nM
GI50 (OVCAR-3 ovarian): 283 nM
TGI (OVCAR-3 ovarian): 1050 nM
GI50 (OVCAR-4 ovarian): 1570 nM
TGI (OVCAR-4 ovarian): 17800 nM
GI50 (OVCAR-5 ovarian): 674 nM
TGI (OVCAR-5 ovarian): 13100 nM
GI50 (OVCAR-8 ovarian): 522 nM
TGI (OVCAR-8 ovarian): 11400 nM
GI50 (PC-3 prostate): 454 nM
TGI (PC-3 prostate): 14300 nM
GI50 (RPMI-8226 leukemia): 381 nM
TGI (RPMI-8226 leukemia): 3720 nM
GI50 (RXF 393 renal): 217 nM
TGI (RXF 393 renal): 600 nM
GI50 (SF-268 CNS): 953 nM
TGI (SF-268 CNS): 11100 nM
GI50 (SF-295 CNS): 374 nM
TGI (SF-295 CNS): 10500 nM
GI50 (SF-539 CNS): 316 nM
TGI (SF-539 CNS): 1110 nM
GI50 (SK-MEL-2 melanoma): 726 nM
TGI (SK-MEL-2 melanoma): 16000 nM
GI50 (SK-MEL-28 melanoma): 2340 nM
TGI (SK-MEL-28 melanoma): 21900 nM
GI50 (SK-MEL-5 melanoma): 430 nM
TGI (SK-MEL-5 melanoma): 3460 nM
GI50 (SK-OV-3 ovarian): 680 nM
TGI (SK-OV-3 ovarian): 19700 nM
GI50 (SN12C renal): 879 nM
TGI (SN12C renal): 13300 nM
GI50 (SNB-19 CNS): 527 nM
TGI (SNB-19 CNS): 17600 nM
GI50 (SNB-75 CNS): 237 nM
TGI (SNB-75 CNS): 2660 nM
GI50 (SR leukemia): 377 nM
TGI (SR leukemia): 5990 nM
GI50 (SW-620 colon): 402 nM
TGI (SW-620 colon): 11700 nM
GI50 (T-47D breast): 522 nM
TGI (T-47D breast): 24300 nM
GI50 (TK-10 renal): 5690 nM
TGI (TK-10 renal): 24000 nM
GI50 (U251 CNS): 432 nM
TGI (U251 CNS): 11300 nM
GI50 (UACC-257 melanoma): 8900 nM
TGI (UACC-257 melanoma): 29000 nM
GI50 (UACC-62 melanoma): 490 nM
TGI (UACC-62 melanoma): 15000 nM
GI50 (UO-31 renal): 612 nM
TGI (UO-31 renal): 18200 nM
